Consider three compounds from patent publication US7250251B2, “Virion-based fusion assay” (The J. David Gladstone Institutes, priority 2002, dated 2007).

For test [1], the system named is X4-tropic NL4-3 virions containing BlaM-Vpr fusing to SupT1 cells. The test can be described thus: Virion-based fusion assay (BlaM-Vpr/CCF2) in SupT1 cells, flow cytometry. It is filed as cell-based, HIV-1. Particulars: NL4-3, 2 hours, about 20% of cells shifted without inhibitor. The procedure: (§1) No antibiotics were added to the culture media.
(§2) Light splitting was performed using a 505 SP filter.
After CCF2/AM loading, fusion was analyzed by multi-parameter flow cytometry using a violet laser for excitation of CCF2.
(In general: In flow cytometry, cells or beads pass a laser one at a time.)

The subject of test [2] is X4-tropic NL4-3 strain of HIV (BlaM-Vpr-containing virions) fusing to HeLa-CD4 cells. The conditions noted are these: 250 nM added 1 hour prior to infection, NL4-3 200 ng p24-Gag, 2 hours, about 10% blue cells without inhibitor.
Protocol: The virion-based fusion assay was performed in three successive steps, including 1) incubation of target cells with virus particles; 2) loading of target cells with CCF2/AM dye, and 3) development and detection of the BlaM reaction. Once target cells were loaded with the CCF2 dye, the cells were maintained at room temperature to avoid export of CCF2. Since viral infections are performed at 37° C., the infection step was performed first, and then the cell cultures were subsequently loaded with the CCF2/AM dye. […]
The change in emission fluorescence of CCF2 following cleavage by the BlaM-Vpr chimera was monitored by flow cytometry using a 3 laser Vantage SE instrument (Becton Dickinson, Inc., San Jose, Calif.). […] Blue emission was detected using an HQ455/50 filter while green emission data was collected using an HQ545/90 BP filter. […] Data were collected using CellQuest and analyzed with FlowJo software (Treestar Inc., San Carlos, Calif.). […]
Cultures of HeLa-CD4 cells expressing endogenous CXCR4 receptors were either mock-infected or infected for 2 hours with BlaM-Vpr-containing virions (200 ng p24-Gag) corresponding to an X4-tropic NL4-3 strain of HIV or an R5-tropic 81A strain of HIV. […] After loading of the cells with the CCF2/AM dye, fusion was analyzed by fluorescence microscopy. […]
The subject of test [3] is CXCR4-tropic HIV-1 virions containing BlaM-Vpr fusing to primary PBMCs. Kind of test: Virion-based fusion assay (BlaM-Vpr/CCF2) in PHA-stimulated PBMCs, flow cytometry. Particulars: CXCR4-tropic virions 100 ng p24 Gag, 2 hours, 5.2% of cells fused without inhibitor. It counts as cell-based. The protocol:
as §1, §2
PBMCs were activated with phytohemagglutinin (PHA) (10 ug/ml) overnight and subsequently cultured in IL-2 (20 IU/ml) for 5 days. The cells were then either mock-infected (FIG. 5, panel a) or infected for 2 hours with 100 ng p24-Gag of X4-tropic NL4-3 virions containing the BlaM-Vpr chimeric viral protein (FIG. 5, panels b, c, d, and e) or 500 ng p24-Gag of R5-tropic […] virions containing the BlaM-Vpr chimeric viral protein (FIG. 5, panels f, g, h, and i) either in the absence of inhibitors (FIG. 5, panel b and f) or in the presence of AMD3100 (250 nM, FIG. 5, panel c and g), […] (250 nM, FIG. 5, panels d and h), or AZT (10 μM, FIG. 5, panels e and i). After CCF2/AM dye loading of the cells, the BlaM reaction was allowed to develop for 12 hours. Virion fusion was analyzed by multi-parameter flow cytometry.

The subject of test [4] is CCR5-tropic strain of HIV-1 (81A) containing BlaM-Vpr fusing to CCR5-Jurkat T cells. The test can be described thus: Virion-based fusion assay (BlaM-Vpr/CCF2) in Jurkat T cells expressing CCR5. It is filed as cell-based. Particulars: 250 nM preincubation, R5-tropic 81A virions. The protocol: as §1, §2
To investigate whether the BlaM-Vpr assay discriminates between productive and non-productive virion entry by fusion and endocytosis respectively, Jurkat T cells either expressing or not expression CCR5 were incubated with a CCR5-tropic strain of HIV-1 (81A) containing BlaM-Vpr (FIG. 3). […] These 81A virions were capable of fusion as indicated by the increase in blue fluorescence obtained when these virions were incubated with Jurkat T cells expressing CCR5 (FIG. 3, panel d, compare with mock infection control in FIG. 3, panel c).

For the compound `c1cc(CN2CCCNCCNCCCNCC2)ccc1CN1CCCNCCNCCCNCC1` [AMD3100], the “shift to increased blue fluorescence induced by viral infection (virion fusion)” value in test [1] (250 nM pretreatment) is reported as “almost completely blocked”. In addition, in test [2], the “blue cells (virion fusion, CCF2 cleavage) in virally infected cells pretreated with inhibitor” value is given as “essentially no blue cells were detected”. In addition, the “inhibition of shift to greater blue fluorescence (virion fusion)” value (“inhibition of shift” below) in test [3] (250 nM pretreatment) was “inhibited this change”.
For the compound `Cc1cn([C@H]2C[C@H](N=[N+]=[N-])[C@@H](CO)O2)c(=O)[nH]c1=O` [AZT], in test [1] (10 μM), the “shift to increased blue fluorescence induced by viral infection (virion fusion)” value was “did not impair the shift to greater blue fluorescence”. For the same compound, in test [3] (10 μM pretreatment), the “inhibition of shift” value is reported as “produced no inhibitory effect”.
With `Cc1ccc(-c2ccc3c(c2)C=C(C(=O)Nc2ccc(C[N+](C)(C)C4CCOCC4)cc2)CCC3)cc1.[Cl-]` [TAK-779], the “inhibition of shift” value in test [3] (250 nM pretreatment) is given as “produced no inhibitory effect”. The “shift to increased blue fluorescence (virion fusion)” value in test [4] is recorded as “no shift to increased blue fluorescence was observed”.
